Data reported in PMC4823750, “Enoyl-CoA hydratase mediates polyhydroxyalkanoate mobilization in Haloferax mediterranei” (Scientific Reports, 2016).

Key:
[1] = molecular target: T1, PhaJ1 (PhaJ1-His6; HFX_5217) (Haloferax mediterranei, UniProt A0ACN4YM66); assay: HPLC of dehydration product; assay type: biochemical; conditions: 0.25 mM racemic 3HB-CoA; 2 M KCl, 100 mM Tris-HCl pH 7.5, 5 mM MgCl2, 45 °C, 30 min
T1 construct: gene maoC; N-terminal His6 tag kept; 219 residues (native); expressed from pTA05-phaJ1 in Haloferax volcanii H1424, Ni-agarose purified
T1 sequence (A0ACN4YM66 entry or part of it): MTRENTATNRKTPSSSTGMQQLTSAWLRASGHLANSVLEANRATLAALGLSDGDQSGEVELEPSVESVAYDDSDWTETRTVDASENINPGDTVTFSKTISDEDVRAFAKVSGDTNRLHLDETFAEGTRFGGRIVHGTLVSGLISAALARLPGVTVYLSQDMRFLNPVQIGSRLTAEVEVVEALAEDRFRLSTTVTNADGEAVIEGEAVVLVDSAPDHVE

[2] = molecular target: T1, PhaJ1 (PhaJ1-His6; HFX_5217); assay: HPLC of hydration product; assay type: biochemical; conditions: 0.25 mM crotonyl-CoA; 2 M KCl, 100 mM Tris-HCl pH 7.5, 5 mM MgCl2, 45 °C, 30 min

| SMILES | HPLC of dehydration product [1] | HPLC of hydration product [2] |
| --- | --- | --- |
| CC(O)CC(=O)SCCNC(=O)CCNC(=O)[C@H](O)C(C)(C)COP(=O)(O)OP(=O)(O)OC[C@H]1O[C@@H](n2cnc3c(N)ncnc32)[C@H](O)[C@@H]1OP(=O)(O)O (some centres unmarked) [3-hydroxybutyryl-CoA] | minor 3HB-CoA was converted into crotonyl-CoA by PhaJ1 | – |
| C/C=C/C(=O)SCCNC(=O)CCNC(=O)[C@H](O)C(C)(C)COP(=O)(O)OP(=O)(O)OC[C@H]1O[C@@H](n2cnc3c(N)ncnc32)[C@H](O)[C@@H]1OP(=O)(O)O [crotonyl-CoA] | – | major crotonyl-CoA was converted into 3HB-CoA by PhaJ1 |
